Measurements: the supplement of paper PMC10307832

The cell lines below were run with O=C(/C=C/c1ccccc1)NC(NC(=S)Nc1cccc2cccnc12)C(Cl)(Cl)Cl [Salubrinal] + COc1cccc2cc(-c3nc([C@H]4CC[C@H](C(=O)O)CC4)n4ncnc(N)c34)[nH]c12 [OSI-027] (partner 0.5 µM) (assay: relative viability (nuclei count vs DMSO), 5 days (fraction); higher = more cells survive). Conditions: first compound 8 µM.
Method in brief: (§1)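 The day after seeding in 1536-well plates, lung cancer cell lines were treated by pin tool with a single drug, or with a fixed anchor-drug dose together with five library-drug doses (not always all listed) in √10 steps. After 5 days, a combined fix-and-stain solution (final 0.05% Triton X-100, 1% formaldehyde, 1 ug/ml Hoechst) was added. Nuclei counted on 4× images gave relative viability as treated counts over vehicle counts, reported as the median of duplicate plates.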

Row | Cell Line | relative viability
1 | NCI-H1793 | 0.236
2 | SW 900 | 0.481
3 | NCI-H441 | 0.506
4 | NCI-H1395 | 0.624
5 | NCI-H1623 | 0.44
6 | NCI-H1648 | 0.266

These cell lines were tested with Cc1ccc2nc(NCCN)c3ncc(C)n3c2c1 + C[C@]1(O)C[C@@H](c2nc(-c3ccc4ccc(-c5ccccc5)nc4c3)c3c(N)nccn32)C1 [Linsitinib] (partner 1 µM) in the same assay as above. Conditions: first compound 0.04 µM.
Method in brief: as §1

Row | Cell Line | relative viability
7 | NCI-H727 | 0.322
8 | EBC-1 | 1.08
9 | NCI-H1703 | 1.43
10 | NCI-H1993 | 0.726
11 | SW 1573 | 0.928
12 | NCI-H838 | 1.01
13 | LCLC-103H | 1.06
14 | NCI-H520 | 0.997
15 | NCI-H2126 | 0.781
16 | EMC-BAC-2 | 0.799
17 | NCI-H2085 | 0.894
18 | Calu-6 | 0.872
19 | HCC-366 | 0.622
20 | NCI-H1666 | 0.909
21 | NCI-H596 | 1.26
22 | LK-2 | 0.561
23 | NCI-H2087 | 1.03
24 | NCI-H358 | 0.755
25 | H3255 | 0.955
26 | IA-LM | 0.825
27 | NCI-H1793 | 1.04
28 | A549 | 0.791
29 | NCI-H441 | 0.752
30 | NCI-H1395 | 1
31 | NCI-H1299 | 1.01

Same assay, conditions: first compound 0.1265 µM

Row | Cell Line | relative viability
32 | NCI-H727 | 0.352
33 | EBC-1 | 1.13
34 | NCI-H1703 | 0.74
35 | NCI-H1993 | 0.763
36 | SW 1573 | 0.824
37 | NCI-H838 | 0.956
38 | LCLC-103H | 1.06
39 | NCI-H520 | 1.15
40 | NCI-H2126 | 0.759
41 | EMC-BAC-2 | 0.806
42 | NCI-H2085 | 0.941
43 | Calu-6 | 0.895
44 | HCC-366 | 0.612
45 | NCI-H1666 | 0.843
46 | NCI-H596 | 1.02
47 | LK-2 | 0.439
48 | NCI-H2087 | 0.963
49 | NCI-H358 | 0.769
50 | H3255 | 0.876
51 | IA-LM | 0.559
52 | NCI-H1793 | 0.951
53 | A549 | 0.557
54 | NCI-H441 | 0.509
55 | NCI-H1395 | 0.955
56 | NCI-H1299 | 0.925

Same assay, conditions: first compound 0.4 µM

Row | Cell Line | relative viability
57 | NCI-H727 | 0.285
58 | EBC-1 | 0.874
59 | NCI-H1703 | 0.72
60 | NCI-H1993 | 0.673
61 | SW 1573 | 0.883
62 | NCI-H838 | 0.964
63 | LCLC-103H | 1.06
64 | NCI-H520 | 0.947
65 | NCI-H2126 | 0.679
66 | EMC-BAC-2 | 0.822
67 | NCI-H2085 | 0.928
68 | Calu-6 | 0.966
69 | HCC-366 | 0.642
70 | NCI-H1666 | 0.942
71 | NCI-H596 | 0.869
72 | LK-2 | 0.531
73 | NCI-H2087 | 0.789
74 | NCI-H358 | 0.694
75 | H3255 | 0.819
76 | IA-LM | 0.542
77 | NCI-H1793 | 0.789
78 | A549 | 0.598
79 | NCI-H441 | 0.714
80 | NCI-H1395 | 1.02
81 | NCI-H1299 | 0.962

Same assay, conditions: first compound 1.265 µM

Row | Cell Line | relative viability
82 | NCI-H727 | 0.308
83 | EBC-1 | 0.866
84 | NCI-H1703 | 1.23
85 | NCI-H1993 | 0.75
86 | SW 1573 | 0.985
87 | NCI-H838 | 0.995
88 | LCLC-103H | 1.14
89 | NCI-H520 | 0.884
90 | NCI-H2126 | 0.645
91 | EMC-BAC-2 | 0.819
92 | NCI-H2085 | 0.862
93 | Calu-6 | 0.982
94 | HCC-366 | 0.78
95 | NCI-H1666 | 0.822
96 | NCI-H596 | 1.03
97 | LK-2 | 0.194
98 | NCI-H2087 | 0.992
99 | NCI-H358 | 0.88
100 | H3255 | 0.915
101 | IA-LM | 0.658
102 | NCI-H1793 | 0.744
103 | A549 | 0.423
104 | NCI-H441 | 0.563
105 | NCI-H1395 | 1.07
106 | NCI-H1299 | 0.979

Same assay, conditions: first compound 4 µM

Row | Cell Line | relative viability
107 | NCI-H727 | 0.338
108 | EBC-1 | 0.793
109 | NCI-H1703 | 0.715
110 | NCI-H1993 | 0.73
111 | SW 1573 | 0.821
112 | NCI-H838 | 0.97
113 | LCLC-103H | 1.16
114 | NCI-H520 | 0.853
115 | NCI-H2126 | 0.673
116 | EMC-BAC-2 | 0.831
117 | NCI-H2085 | 0.87
118 | Calu-6 | 0.983
119 | HCC-366 | 0.49
120 | NCI-H1666 | 0.71
121 | NCI-H596 | 1.03
122 | LK-2 | 0.37
123 | NCI-H2087 | 0.877
124 | NCI-H358 | 0.665
125 | H3255 | 0.944
126 | IA-LM | 0.495
127 | NCI-H1793 | 0.845
128 | A549 | 0.534
129 | NCI-H441 | 0.504
